Data from US7960131B2, “Functional genomic pore assay for mixed cell populations” (Wisconsin Alumni Research Foundation, priority 2003, dated 2011).
“And” between values parts separate entries of the source, which are not always exact repeats. Equal values may be shown once.

How the values were obtained:
P2X7 = target: T1, P2X7 (Homo sapiens, UniProt Q99572); assay: YO-PRO-1 plate assay of P2X7 agonists with astrocytoma cell line 1321N1; assay type: cell-based; conditions: for YO-PRO-1 fluorescence (485/20, 528/20), single well: 5 × 10^4 1321N1 cells; for YO-PRO-1 fluorescence, average of duplicate wells: 1321N1 cells;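 on all read-outs here: dye uptake read after 20 min agonist exposure with YO-PRO-1 present, unbound dye removed by washing before reading in a fluorescence plate reader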
T1 construct: host or cells: astrocytoma cell line (the earlier reading names it 1321N1)
T1 sequence (Q99572 1-595): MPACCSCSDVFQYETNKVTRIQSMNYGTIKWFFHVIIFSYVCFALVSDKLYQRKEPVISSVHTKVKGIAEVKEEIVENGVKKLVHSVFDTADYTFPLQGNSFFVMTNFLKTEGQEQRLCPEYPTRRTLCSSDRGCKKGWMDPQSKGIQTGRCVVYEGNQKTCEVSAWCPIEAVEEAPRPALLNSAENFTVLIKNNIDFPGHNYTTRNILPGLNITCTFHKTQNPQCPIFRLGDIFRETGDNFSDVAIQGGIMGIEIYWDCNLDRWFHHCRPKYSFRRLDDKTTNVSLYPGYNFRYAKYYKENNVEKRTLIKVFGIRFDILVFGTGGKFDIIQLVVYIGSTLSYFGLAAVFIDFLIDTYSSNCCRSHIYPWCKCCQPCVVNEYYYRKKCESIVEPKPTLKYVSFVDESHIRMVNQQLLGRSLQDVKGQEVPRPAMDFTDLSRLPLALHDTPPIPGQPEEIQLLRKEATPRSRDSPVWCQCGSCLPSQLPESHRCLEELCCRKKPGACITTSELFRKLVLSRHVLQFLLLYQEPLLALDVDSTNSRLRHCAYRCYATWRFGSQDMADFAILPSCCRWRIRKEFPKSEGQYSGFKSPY

[1] = tested on: animal model of severe sepsis; conditions: co-administration, mice; cited from earlier work

Q: For `CSc1nc(N)c2ncn([C@@H]3O[C@H](COP(=O)(O)OP(=O)(O)OP(=O)(O)O)[C@@H](O)[C@H]3O)c2n1` [2MeSATP, 2-methylthio-adenosine 5′-triphosphate], which “YO-PRO-1 fluorescence (485/20, 528/20), single well” value (from here on “YO-PRO-1 fluorescence … single well”) (P2X7; agent 3 μM + YOPRO) is on record?
A: The value was 109 and 102.

Q: What about the “YO-PRO-1 fluorescence … single well” value (P2X7; agent 10 μM + YOPRO) of the same molecule?
A: Its value is 144.

Q: What about the “YO-PRO-1 fluorescence … single well” value (P2X7; agent 30 μM + YOPRO) of the same molecule?
A: Its value is 157 and 154.

Q: And the “YO-PRO-1 fluorescence … single well” value (P2X7; agent 100 μM + YOPRO)?
A: The value was 155 and 170.

Q: What about the “YO-PRO-1 fluorescence … single well” value (P2X7; agent 300 μM + YOPRO) of the same molecule?
A: Its value is 168 and 162.

Q: And the “YO-PRO-1 fluorescence … single well” value (P2X7; agent 1 mM + YOPRO)?
A: The value was 161 and 164.

Q: What about the “YO-PRO-1 fluorescence, average of duplicate wells” value (“YO-PRO-1 fluorescence, average” for short) (P2X7; 1 uM, agent + YOPRO) of the same molecule?
A: Its value is 105.5.

Q: What about the “YO-PRO-1 fluorescence, average” value (P2X7; 3 uM, agent + YOPRO) of the same molecule?
A: Its value is 144.

Q: And the “LPS-induced serum levels of TNF-alpha and IL-1” value [1]?
A: The value was “reductions in LPS-induced serum levels of TNF-alpha and IL-1”.

Q: And the “protection from endotoxic death” value [1]?
A: The value was “protects mice from endotoxic death”.

Q: For `Nc1ncnc2c1ncn2[C@@H]1O[C@H](COP(=O)(O)OP(=O)(O)NP(=O)(O)O)[C@@H](O)[C@H]1O` [AMPPNP, adenosine 5′(beta,gamma-imido)triphosphate], which “YO-PRO-1 fluorescence … single well” value (P2X7; agent 300 μM + YOPRO) is on record?
A: Its value is 75 and 86.

Q: Which results are given for `CN([C@@H](Cc1ccc(OS(=O)(=O)c2cccc3cnccc23)cc1)C(=O)N1CCN(c2ccccc2)CC1)S(=O)(=O)c1cccc2cnccc12` [KN62]?
A: YO-PRO-1 fluorescence (485/20, 528/20), single well (P2X7; 1 mM ATP + KN62 1 μM + YOPRO): 185 and 177; YO-PRO-1 fluorescence (485/20, 528/20), single well (P2X7; 1 mM ATP + KN62 3 μM + YOPRO): 181 and 176; YO-PRO-1 fluorescence (485/20, 528/20), single well (P2X7; 1 mM ATP + KN62 10 μM + YOPRO): 159; YO-PRO-1 fluorescence (485/20, 528/20), single well (P2X7; 1 mM ATP + KN62 30 μM + YOPRO): 155 and 153; YO-PRO-1 fluorescence (485/20, 528/20), single well (P2X7; 1 mM ATP + KN62 100 μM + YOPRO): 148; YO-PRO-1 fluorescence (485/20, 528/20), single well (P2X7; 1 mM ATP + KN62 300 μM + YOPRO): 152 and 165; YO-PRO-1 fluorescence, average of duplicate wells (P2X7; 1 mM ATP + KN62 1 uM + YOPRO): 181; YO-PRO-1 fluorescence, average of duplicate wells (P2X7; 1 mM ATP + KN62 3 uM + YOPRO): 178.5

Q: For `O=c1ccn([C@@H]2O[C@H](COP(=O)(O)OP(=O)(O)OP(=O)(O)O)[C@@H](O)[C@H]2O)c(=O)[nH]1` [UTP], which “YO-PRO-1 fluorescence … single well” value (P2X7; agent 300 μM + YOPRO) is on record?
A: Its value is 72 and 73.

Q: With `Nc1ncnc2c1ncn2[C@@H]1O[C@H](COP(=O)(O)CP(=O)(O)OP(=O)(O)O)[C@@H](O)[C@H]1O` [ab-CH2-ATP] as the molecule, how does the “YO-PRO-1 fluorescence … single well” value (P2X7; agent 1 μM + YOPRO) read?
A: The value was 68 and 67.

Q: What about the “YO-PRO-1 fluorescence … single well” value (P2X7; agent 3 μM + YOPRO) of the same molecule?
A: Its value is 68 and 69.

Q: What about the “YO-PRO-1 fluorescence … single well” value (P2X7; agent 10 μM + YOPRO) of the same molecule?
A: The value was 74.

Q: What about the “YO-PRO-1 fluorescence … single well” value (P2X7; agent 30 μM + YOPRO) of the same molecule?
A: Its value is 74 and 78.

Q: And the “YO-PRO-1 fluorescence … single well” value (P2X7; agent 100 μM + YOPRO)?
A: The value was 89 and 83.

Q: What about the “YO-PRO-1 fluorescence … single well” value (P2X7; agent 300 μM + YOPRO) of the same molecule?
A: Its value is 101 and 116.

Q: What about the “YO-PRO-1 fluorescence, average” value (P2X7; 1 uM, agent + YOPRO) of the same molecule?
A: Its value is 67.5.

Q: What about the “YO-PRO-1 fluorescence, average” value (P2X7; 3 uM, agent + YOPRO) of the same molecule?
A: Its value is 68.5.
